# Results published in patent US9170257B2 (priority 2012, dated 2015).
# Where two headings read alike, the source gives them in different places.
# Test: Tissue distribution of curcumin and THC at necropsy 15 minutes post-infusion
# Parameters: species or system Beagle dogs
# Conditions: for Plasma concentration used to calculate Kp: average of end of infusion and 15 minutes post infusion; for concentration at 15 min / Kp at 2 h / Kp at 8 h: both sexes, dog, in vivo, 10 mg/kg; for Kp at 2 h: 2 hr infusion; for Kp at 2 h / Kp at 8 h: H3PO4 stabilized; for Kp at 8 h: 8 hr infusion
# Method: The test article will be administered to 8 Beagle dogs by intravenous infusion over two hours (Part A) or eight hours (Part B) as shown in Table 6.
# Multiple samples of tissue weighing approximately 1 gram were removed and snap frozen in the presence or absence of phosphoric acid (H3PO4). For all tissue samples, the levels of curcumin and THC were determined using a method developed by the Bioanalytical Department at Nucro-Technics. […] Values that were below the limit of quantification were assigned a value of 0. […] Tissue distribution data was analyzed using, unless stated, the data from 4 dogs and are presented as the mean±standard error (S.E.).
# [1] = beagle, read-out: Kp [tissue]/[plasma], Brain Stem
# [2] = beagle, read-out: Kp [tissue]/[plasma], Cortex, Brain
# [3] = beagle, read-out: Kp [tissue]/[plasma], Hippocampus
# [4] = beagle, read-out: Kp [tissue]/[plasma], Kidney
# [5] = beagle, read-out: Kp [tissue]/[plasma], Liver
# [6] = beagle, read-out: Kp [tissue]/[plasma], Lungs
# [7] = beagle, read-out: Kp [tissue]/[plasma], Muscle
# [8] = beagle, read-out: Kp [tissue]/[plasma], Pancreas
structure (smiles),measurement,setting,value
"COc1cc(CCC(=O)CC(=O)CCc2ccc(O)c(OC)c2)ccc1O [THC, tetrahydrocurcumin]","Tissue level, Liver","2 hour infusion, Plus H3PO4",0.45 ng/g
same,"Tissue level, Lungs","2 hour infusion, Plus H3PO4",2.14 ng/g
same,Plasma concentration used to calculate Kp,2 hours infusion,810.9 ng/mL
same,"Tissue level, Lungs","8 hour infusion, Plus H3PO4",6.36 ng/g
same,Plasma concentration used to calculate Kp,8 hours infusion,104.5 ng/mL
same,concentration at 15 min,"Beagle, 2 hour infusion, No H3PO4, read-out: Tissue level, Brain Stem",2.34 ng/g
same,concentration at 15 min,"beagle, 2 hour infusion, No H3PO4, read-out: Tissue level, Cortex, Brain",0.68 ng/g
same,concentration at 15 min,"beagle, 2 hour infusion, No H3PO4, read-out: Tissue level, Heart",2.51 ng/g
same,concentration at 15 min,"beagle, 2 hour infusion, No H3PO4, read-out: Tissue level, Hippocampus",0.75 ng/g
same,concentration at 15 min,"beagle, 2 hour infusion, No H3PO4, read-out: Tissue level, Kidney",3.06 ng/g
same,concentration at 15 min,"beagle, 2 hour infusion, No H3PO4, read-out: Tissue level, Liver",1.9 ng/g
same,concentration at 15 min,"beagle, 2 hour infusion, No H3PO4, read-out: Tissue level, Lungs",25 ng/g
same,concentration at 15 min,"beagle, 2 hour infusion, No H3PO4, read-out: Tissue level, Muscle",5.26 ng/g
same,concentration at 15 min,"beagle, 2 hour infusion, No H3PO4, read-out: Tissue level, Pancreas",2.02 ng/g
same,concentration at 15 min,"beagle, 2 hour infusion, No H3PO4, read-out: Tissue level, Striatum",6.22 ng/g
same,concentration at 15 min,"beagle, 2 hour infusion, No H3PO4, read-out: Tissue level, Urinary Bladder",0.84 ng/g
same,concentration at 15 min,"beagle, 2 hour infusion, Plus H3PO4, read-out: Tissue level, Brain Stem",10.6 ng/g
same,concentration at 15 min,"beagle, 2 hour infusion, Plus H3PO4, read-out: Tissue level, Cortex, Brain",3.08 ng/g
same,concentration at 15 min,"beagle, 2 hour infusion, Plus H3PO4, read-out: Tissue level, Heart",0.69 ng/g
same,concentration at 15 min,"beagle, 2 hour infusion, Plus H3PO4, read-out: Tissue level, Hippocampus",6.46 ng/g
same,concentration at 15 min,"beagle, 2 hour infusion, Plus H3PO4, read-out: Tissue level, Kidney",4.25 ng/g
same,concentration at 15 min,"beagle, 2 hour infusion, Plus H3PO4, read-out: Tissue level, Muscle",4.19 ng/g
same,concentration at 15 min,"beagle, 2 hour infusion, Plus H3PO4, read-out: Tissue level, Pancreas",0.92 ng/g
same,concentration at 15 min,"beagle, 2 hour infusion, Plus H3PO4, read-out: Tissue level, Striatum",11.1 ng/g
same,concentration at 15 min,"beagle, 2 hour infusion, Plus H3PO4, read-out: Tissue level, Urinary Bladder",0.87 ng/g
same,Kp at 2 h,[1],0.0037
same,Kp at 2 h,[2],0.0006
same,Kp at 2 h,[3],0.0014
same,Kp at 2 h,[4],0.0025
same,Kp at 2 h,[5],0.0028
same,Kp at 2 h,[6],0.0078
same,Kp at 2 h,[7],0.0011
same,Kp at 2 h,[8],0.0017
same,Kp at 2 h,"beagle, read-out: Kp [tissue]/[plasma], Striatum",0.0039
same,Kp at 2 h,"beagle, read-out: Kp [tissue]/[plasma], Urinary Bladder",0.0014
same,concentration at 15 min,"beagle, 8 hour infusion, No H3PO4, read-out: Tissue level, Brain Stem",0.83 ng/g
same,concentration at 15 min,"beagle, 8 hour infusion, No H3PO4, read-out: Tissue level, Cortex, Brain",0.06 ng/g
same,concentration at 15 min,"beagle, 8 hour infusion, No H3PO4, read-out: Tissue level, Heart",0.51 ng/g
same,concentration at 15 min,"beagle, 8 hour infusion, No H3PO4, read-out: Tissue level, Hippocampus",0.01 ng/g
same,concentration at 15 min,"beagle, 8 hour infusion, No H3PO4, read-out: Tissue level, Kidney",1.32 ng/g
same,concentration at 15 min,"beagle, 8 hour infusion, No H3PO4, read-out: Tissue level, Liver",2.63 ng/g
same,concentration at 15 min,"beagle, 8 hour infusion, No H3PO4, read-out: Tissue level, Lungs",10.8 ng/g
same,concentration at 15 min,"beagle, 8 hour infusion, No H3PO4, read-out: Tissue level, Muscle",0.38 ng/g
same,concentration at 15 min,"beagle, 8 hour infusion, No H3PO4, read-out: Tissue level, Pancreas",0.34 ng/g
same,concentration at 15 min,"beagle, 8 hour infusion, No H3PO4, read-out: Tissue level, Striatum",1.12 ng/g
same,concentration at 15 min,"beagle, 8 hour infusion, No H3PO4, read-out: Tissue level, Urinary Bladder",1.37 ng/g
same,concentration at 15 min,"beagle, 8 hour infusion, Plus H3PO4, read-out: Tissue level, Brain Stem",3.02 ng/g
same,concentration at 15 min,"beagle, 8 hour infusion, Plus H3PO4, read-out: Tissue level, Cortex, Brain",0.49 ng/g
same,concentration at 15 min,"beagle, 8 hour infusion, Plus H3PO4, read-out: Tissue level, Heart",0.03 ng/g
same,concentration at 15 min,"beagle, 8 hour infusion, Plus H3PO4, read-out: Tissue level, Hippocampus",1.13 ng/g
same,concentration at 15 min,"beagle, 8 hour infusion, Plus H3PO4, read-out: Tissue level, Kidney",2.04 ng/g
same,concentration at 15 min,"beagle, 8 hour infusion, Plus H3PO4, read-out: Tissue level, Liver",2.25 ng/g
same,concentration at 15 min,"beagle, 8 hour infusion, Plus H3PO4, read-out: Tissue level, Muscle",0.93 ng/g
same,concentration at 15 min,"beagle, 8 hour infusion, Plus H3PO4, read-out: Tissue level, Pancreas",1.34 ng/g
same,concentration at 15 min,"beagle, 8 hour infusion, Plus H3PO4, read-out: Tissue level, Striatum",3.14 ng/g
same,concentration at 15 min,"beagle, 8 hour infusion, Plus H3PO4, read-out: Tissue level, Urinary Bladder",1.11 ng/g
same,Kp at 8 h,[1],0.0289
same,Kp at 8 h,[2],0.0047
same,Kp at 8 h,"beagle, read-out: Kp [tissue]/[plasma], Heart",0.0003
same,Kp at 8 h,[3],0.0108
same,Kp at 8 h,[4],0.0195
same,Kp at 8 h,[5],0.0215
same,Kp at 8 h,[6],0.0609
same,Kp at 8 h,[7],0.0089
same,Kp at 8 h,[8],0.0128
